{
  "source": "patent US6087493A",
  "about": "“Porphyrin compounds as telomerase inhibitors” (Regents of the University of Texas System, priority 1998, dated 2000)",
  "key": {"[1]": {"tested_on": "MCF-7M", "type": "cell-based, human", "conditions": "mcf-7m cells", "protocol": "(§1) Cytotoxicity of the compounds to human breast cancer cells in vitro was assessed using a panel of cell lines representing estrogen receptor-positive (BT20, MCF-7m), and a pair of estrogen receptor-negative, transformed breast (11S578t) and normal breast (HS578Bst) cells.\n(§2) Thy: tritiated […] assay (n = 3 ± SEM)"}, "[2]": {"tested_on": "HS578t", "type": "cell-based, human", "conditions": "hs578t cells", "protocol": "as §1, §2"}, "[3]": {"tested_on": "PC3", "assay": "Cytotoxicity (MTT) PC3", "type": "cell-based, human", "conditions": "pc3 cells", "protocol": "(§3) The cells were cultured in the presence of the porphyrins incubator for 4-7 days and then treated with 3-(4,5-dimethylthiazol-2-yl)-2,5-diphenyl-tetrazolium bromide (MTT). Formazan concentration was quantitated by absorbance at 570 nm."}, "[4]": {"tested_on": "telomere length in MCF7 cells", "assay": "Telomere length analysis in MCF7 cells", "type": "cell-based, human", "protocol": "DNA was extracted from a minimum of 5×10^6 cells by SDS, proteinase K treatment, then purified and quantitated as previously described (Strahl and Blackburn, 1991). Approximately 1 μg of total DNA was digested with Mse I; the digested DNA was size fractionated by agarose gel electrophoresis and Southern blotted. The blots were hybridized with a ^32 P-labeled 0.5 kb PCR™ DNA fragments composed of the telomere repeat d(TTAGGG), which served as a probe for the telomeres. The hybridized probe was detected by autoradiography and each lane on the film was analyzed by phosphoimage analysis (Molecular Dynamics).\nTelomeres shorten at an average rate of 65-100 base pairs per cell division (Counter et al., 1992). To observe a significant effect of an agent on telomere length, e.g., shortening the telomeres by >1 kilobase in MCF7 cells (5.7 kbases), a minimum of […] population doubling times will be required."}, "[5]": {"tested_on": "LNCap", "assay": "Cytotoxicity (MTT) LNCap", "type": "cell-based, human", "conditions": "lncap cells", "protocol": "as §3"}, "[6]": {"target": "human telomerase (Homo sapiens, UniProt O14746)", "sequence (O14746 whole entry)": "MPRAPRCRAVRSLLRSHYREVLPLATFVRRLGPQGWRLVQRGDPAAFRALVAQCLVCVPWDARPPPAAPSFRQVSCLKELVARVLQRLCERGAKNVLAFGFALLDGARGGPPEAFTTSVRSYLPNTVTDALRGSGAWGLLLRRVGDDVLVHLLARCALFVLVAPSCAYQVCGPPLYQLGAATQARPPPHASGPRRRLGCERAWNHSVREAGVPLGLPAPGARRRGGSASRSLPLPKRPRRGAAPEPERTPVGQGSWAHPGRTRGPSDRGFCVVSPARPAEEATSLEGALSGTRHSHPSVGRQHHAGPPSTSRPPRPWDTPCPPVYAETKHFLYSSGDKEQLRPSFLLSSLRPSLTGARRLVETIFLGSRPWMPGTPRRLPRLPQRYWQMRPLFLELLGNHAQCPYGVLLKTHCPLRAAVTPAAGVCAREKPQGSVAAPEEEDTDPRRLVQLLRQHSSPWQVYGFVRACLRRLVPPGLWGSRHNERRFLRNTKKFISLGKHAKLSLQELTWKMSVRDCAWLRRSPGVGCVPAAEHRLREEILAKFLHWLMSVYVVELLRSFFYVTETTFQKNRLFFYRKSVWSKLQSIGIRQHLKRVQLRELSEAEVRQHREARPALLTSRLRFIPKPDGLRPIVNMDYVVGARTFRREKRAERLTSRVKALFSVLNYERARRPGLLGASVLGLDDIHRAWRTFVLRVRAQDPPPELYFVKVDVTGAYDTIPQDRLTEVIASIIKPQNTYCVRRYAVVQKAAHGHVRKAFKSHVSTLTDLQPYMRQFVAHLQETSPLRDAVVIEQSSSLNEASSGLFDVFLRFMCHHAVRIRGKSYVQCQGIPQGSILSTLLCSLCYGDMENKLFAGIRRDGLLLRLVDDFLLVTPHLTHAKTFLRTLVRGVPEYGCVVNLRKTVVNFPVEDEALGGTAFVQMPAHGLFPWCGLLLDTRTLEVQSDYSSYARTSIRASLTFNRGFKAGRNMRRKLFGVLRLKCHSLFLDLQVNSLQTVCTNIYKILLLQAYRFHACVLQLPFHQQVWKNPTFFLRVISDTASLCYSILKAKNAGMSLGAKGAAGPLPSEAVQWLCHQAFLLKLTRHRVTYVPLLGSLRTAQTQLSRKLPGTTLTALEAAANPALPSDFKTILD", "assay": "Telomerase inhibition, primer extension assay in HeLa cell extract", "type": "biochemical"}, "[7]": {"tested_on": "Daudi", "assay": "cells", "type": "cell-based, human", "conditions": "daudi cells", "protocol": "as §3"}, "[8]": {"tested_on": "MCF-7M", "type": "cell-based, human", "conditions": "mcf-7m cells", "protocol": "as §1", "remark": "listed apart in the source"}, "[9]": {"tested_on": "MDA-231", "assay": "Cytotoxicity (MTT) MDA-231", "type": "cell-based, human", "conditions": "mda-231 cells", "protocol": "as §3"}, "[10]": {"tested_on": "HeLa", "assay": "cells", "type": "cell-based, human", "conditions": "hela cells"}, "[11]": {"tested_on": "sea urchin embryos", "conditions": "in vivo", "protocol": "Lytechinus pictus sea urchins were purchased from Marinus Inc. (Long Beach, Calif.) and maintained at 15° C. in refrigerated aquaria containing Instant Ocean synthetic sea water, following a described procedure [Vafa, 1996 #300]. For polyspermic fertilization, 0.01 vol freshly prepared stock sperm suspension (25 ml ASW containing 2 ml undiluted semen) was added to the eggs suspended for 10 min at 1% concentration in ASW adjusted to pH 9.0 with NH4 OH and stirred at 60 rpm with motor-driven Teflon paddles. Ten min after insemination, the fertilized eggs were allowed to settle, and the supernatant ASW containing sperm was aspirated and replaced with fresh ASW. The embryos were cultured at 18° C. Twenty min after fertilization TMPyP4 or TMPyP4.Pt^II (100 μM final concentration) was added from a concentrated stock in DMSO to 1% embryo suspensions. Equivalent amounts of DMSO (final 0.1%) were added to control egg suspensions. At measured times after insemination, the embryos were pelleted by centrifugation and resuspended in Carnoy's fixative (ethanol:acetic acid, 3:1) for at least 1 hr. After fixation the embryos were pelleted and resuspended successively in: (1) ethanol:acetic acid, 1:1 for 5-15 min: (2) 45% acetic acid for 5-15 min; (3) room temperature 1 N HCl for 1-2 min: (4) 60° C. 1 N HCl for 7-8 min; (5) room temperature 1 N HCl for 1-2 min; (6) Schiffs reagent for 90-120 min; and (7) 45% acetic acid before affixing the embryos to microscope slides. Embryo samples were placed on microscope slides, covered with coverslips, and frozen on a bed of dry ice. After at least 30 min, the coverslips were popped off using a razor blade and the slides were immediately plunged into Coplin jars containing 95% ethanol for 5-10 min. The slides were then transferred to Coplin jars containing 100% ethanol for 3-5 min. After removing the slides and allowing them to air dry, the embryos were mounted with one drop Permount (Fisher) under a coverglass.\nThe inventors examined whether treatment of the embryos with G-quadroplex interactive agents can cause observable chromosomal abnormalities. A time course of the embryo development was followed in the presence of 10 μM and 100 μM concentrations of TMPyP4 or TMPyP4.Pt^II."}, "[12]": {"tested_on": "DU145", "assay": "Cytotoxicity (MTT) DU145", "type": "cell-based, human", "conditions": "du145 cells", "protocol": "as §3"}, "[13]": {"tested_on": "MCF7 human breast carcinoma cells (telomerase activity)", "assay": "Telomerase activity in intact MCF7 cells cultured with porphyrin", "type": "cell-based", "protocol": "To determine the long-term effects of TMPyP4 on whole cells, MCF7 breast carcinoma cells were cultured in the continuous presence of 1, 10, and 100 μM TMPyP4. The porphyrin solution was freshly added to the medium from the concentrated stock at each passage of the cells (every 3-4 days). On days 4, 8, and 15, the cells were lysed and the telomerase activity was measured in the extracts.\nBreast cancer cells MCF-7m, BT20, HS578t and normal HS578Bst cells were grown in culture in T75 flasks (10^6 cells/flask). […] The cells were harvested and freeze-thawed and the extracts used to measure telomerase activity using the Dynabeads method."}, "[14]": {"tested_on": "MCF-7", "assay": "Cytotoxicity (MTT) MCF-7", "type": "cell-based, human", "conditions": "mcf-7 cells", "protocol": "as §3"}, "[15]": {"tested_on": "Raji", "assay": "Cytotoxicity (MTT) Raji", "type": "cell-based, human", "conditions": "raji cells", "protocol": "as §3"}, "[16]": {"tested_on": "NHLF", "assay": "Cytotoxicity (MTT) NHLF normal lung fibroblasts", "type": "cell-based", "conditions": "human, nhlf cells", "protocol": "as §3\nAll porphyrins were obtained from Midcentury, Posen, Ill. The experimental work with porphyrins was performed under minimum exposure to light. All human tumor cell lines and normal human breast cells Hs578Bst were purchased from the American Type Culture Collection. Normal human lung fibroblasts NHLF were obtained from Clonetics Corporation. The cell lines were grown according to the suppliers' instructions."}, "[17]": {"tested_on": "BT-20", "assay": "Cytotoxicity (MTT) BT-20", "type": "cell-based, human", "conditions": "bt-20 cells", "protocol": "as §3"}},
  "note": "Where two headings read alike, the source gives them in different places.",
  "data": [
    {"compound": "C[n+]1ccc(-c2c3nc(c(-c4cc[n+](C)cc4)c4ccc([n-]4)c(-c4cc[n+](C)cc4)c4nc(c(-c5cc[n+](C)cc5)c5ccc2[n-]5)C=C4)C=C3)cc1.[Cl-].[Cl-].[Cl-].[Cl-].[Pt+2]", "note": "[TMPyP4 PtII, Platinum(II)tetra(N-methyl-4-pyridyl)porphyrin chloride]", "values": [
      {"measurement": "IC50", "setting": "[1]", "value": "434 ± 386", "unit": "µM"},
      {"measurement": "IC50", "setting": "[2]", "value": "214 ± 49", "unit": "µM"},
      {"measurement": "IC50", "setting": "[3]", "value": "> 200", "unit": "µM"},
      {"measurement": "effect on telomere shortening", "setting": "[4]", "value": "No detectable effects on telomere shortening"},
      {"measurement": "IC50", "setting": "[5]", "value": 42.2, "unit": "µM"},
      {"measurement": "% Inhibition of telomerase", "setting": "[6]; 25 µM", "value": 69, "unit": "%"},
      {"measurement": "IC50", "setting": "[6]; read-out: Telomerase Inhibition", "value": 15, "unit": "µM"},
      {"measurement": "IC50", "setting": "[7]", "value": 104, "unit": "µM"},
      {"measurement": "IC50", "setting": "[8]", "value": "74.8 ± 31.9", "unit": "µM"},
      {"measurement": "IC50", "setting": "[9]", "value": "> 100", "unit": "µM"},
      {"measurement": "IC50", "setting": "[10]", "value": "136 ± 34.8", "unit": "µM"},
      {"measurement": "cell number and morphology of embryos", "setting": "[11]", "value": "fewer cells, many very misshapen and variable in size relative to the controls"},
      {"measurement": "condensed chromosome length / chromosomal effects", "setting": "[11]", "value": "Qualitatively similar results"},
      {"measurement": "differences from controls in embryos", "setting": "[11]", "value": "no definitive differences were seen"},
      {"measurement": "first signs of ciliary motility", "setting": "[11]", "value": 9, "unit": "h"},
      {"measurement": "toxicity to embryos", "setting": "[11]", "value": "generally non-toxic to the embryos"},
      {"measurement": "IC50", "setting": "[12]", "value": 1360, "unit": "µM"},
      {"measurement": "telomerase activity in intact MCF7 cells", "setting": "[13]", "value": "less potent inhibitor than TMPyP4"},
      {"measurement": "IC50", "setting": "[14]", "value": "> 100", "unit": "µM"},
      {"measurement": "IC50", "setting": "[15]", "value": 64.6, "unit": "µM"},
      {"measurement": "CC50", "setting": "[16]", "value": 11.6, "unit": "µM"},
      {"measurement": "IC50", "setting": "[17]", "value": 262, "unit": "µM"}
    ]}
  ]
}
